# According to US20170320837A1, “METHOD FOR TREATING INFLAMMATORY DISORDERS” (Synta Pharmaceuticals Corp., priority 2006, published 2017):
# “Also recorded” adds a separate entry of the source.
# Legend:
# glucocorticoid receptors = molecular target: T1, glucocorticoid receptors (Homo sapiens, UniProt P04150); assay: Competitive binding assay with tritium labeled dexamethason in Hela S3 cells (legend of FIG. 3)
# T1 construct: endogenous in cells; host or cells: HeLa S3
# T1 sequence (P04150 1-777): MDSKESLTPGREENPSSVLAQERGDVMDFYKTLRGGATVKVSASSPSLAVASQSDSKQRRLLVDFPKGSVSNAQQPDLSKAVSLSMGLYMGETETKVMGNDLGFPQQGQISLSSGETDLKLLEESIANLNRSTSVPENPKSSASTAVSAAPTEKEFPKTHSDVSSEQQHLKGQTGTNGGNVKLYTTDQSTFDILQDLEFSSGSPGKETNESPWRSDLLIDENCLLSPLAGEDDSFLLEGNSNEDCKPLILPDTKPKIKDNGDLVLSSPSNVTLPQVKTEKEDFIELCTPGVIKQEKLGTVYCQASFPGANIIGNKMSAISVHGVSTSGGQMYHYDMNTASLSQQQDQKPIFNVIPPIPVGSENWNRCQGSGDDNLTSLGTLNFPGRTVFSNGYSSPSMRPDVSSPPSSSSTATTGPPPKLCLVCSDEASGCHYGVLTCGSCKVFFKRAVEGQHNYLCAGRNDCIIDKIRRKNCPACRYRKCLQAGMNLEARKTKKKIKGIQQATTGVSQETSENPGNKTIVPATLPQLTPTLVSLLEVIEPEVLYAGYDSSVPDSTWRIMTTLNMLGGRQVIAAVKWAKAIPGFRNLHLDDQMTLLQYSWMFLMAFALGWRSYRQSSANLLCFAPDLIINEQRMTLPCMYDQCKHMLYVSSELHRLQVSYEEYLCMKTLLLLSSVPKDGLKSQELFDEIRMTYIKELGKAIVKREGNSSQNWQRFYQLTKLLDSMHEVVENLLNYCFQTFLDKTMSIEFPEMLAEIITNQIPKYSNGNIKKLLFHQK
# glucocorticoid receptor [1] = assay: Glucocorticoid receptor levels in rat PBMCs, immunoblot; type: cell-based; conditions: rat PBMCs, 0, 1, 5, 25, or 100 nM, 16 hours
# Procedure: (§1) The whole blood samples from healthy human volunteer and male SD rat were collected and the PBMCs were isolated immediately as follows. 5 ml of whole blood was diluted with an equal volume of sterile 1× PBS. The diluted blood was overlayed carefully into a sterile centrifuge tube without disturbing the bottom layer that containing 5 ml of Ficoll-paque plus density gradient solution. The layered blood was centrifuged at 1500×g for 30 minutes at room temperature. The middle thin layer containing PBMCs was carefully removed, transferred to another sterile centrifuge tube, and washed twice with PBS to remove […]. Isolated rat and human PBMCs were cultured in 10% fetal bovine serum/DMEM.
# (§2) The rat and human PBMCs were treated with DMSO (control), Compound 226, Compound 287, or 17-DMAG at concentrations of 0, 1, 5, 25, or 100 nM (in DMSO) for 16 hours. The cells were then collected and rinsed in ice-cold PBS and stored in liquid nitrogen until further analysis.
# (§3) PBMC were prepared in Western lysis buffer (10 mmol/L HEPES, 42 mmol/L KCl, 5 mmol/L MgCl2, 0.1 mmol/L EDTA, 0.1 mmol/L EGTA, 1 mmol/L DTT, 1% Triton X-100, freshly supplemented with 1× protease inhibitor cocktail from Pierce, Rockford, Ill.). Lysate protein concentrations were quantified by bicinchoninic acid assay (Pierce) and normalized. Equal amounts of protein were loaded onto 10% NuPAGE Bis-Tris Gels (Invitrogen) and subsequently transferred onto polyvinylidene difluoride membranes. The membranes were blocked in 5% milk in TBST. Primary antibody of glucocorticod receptor from Santa Cruz Biotechnology, Inc. was added and incubated at room temperature for 1 hour with shaking. The blots were washed extensively in TBST before secondary antibodies were added for overnight incubation at 4° C. with gentle shaking. The blots were again washed extensively and developed with SuperSignal West Femto substrate (Pierce). The immunoblot analysis was performed to measure the level of total GRs by Quantity One software from Bio-Rad.
# glucocorticoid receptor [2] = assay: Glucocorticoid receptor levels in human PBMCs, immunoblot (Example 114); type: cell-based; conditions: human PBMCs, 0, 1, 5, 25, or 100 nM, 16 hours
# Procedure: as §1, §2, §3
# glucocorticoid receptor [3] = assay: Glucocorticoid receptor levels in human PBMCs, renal cells and cancer cell lines, immunoblot (Example 115); type: cell-based
# Procedure: Normal human renal proximal tubule epithelial cells and tumor cell lines of MV-4-11, Kasumi-1, and Hela were obtained from Cambrex Bioproducts and American Type Culture Collection, respectively. Cells were cultured with 10% fetal bovine serum/DMEM.
# The whole blood samples from healthy human volunteer were collected and the PBMCs were isolated immediately as described in Example 116. Isolated human PBMCs were cultured in 10% fetal bovine serum/DMEM.
# as §2, with “Human PBMCs, kasumi-1, My-4-11, Hela,” for “The rat”, “renal proximal tubule epithelial cells” for “PBMCs”, “287,” for “287, or”, “0,” for “0, 1,”
# as §3, with “PBMC, renal and tumor cell pellets” for “PBMC”, “0.1. mmol/LEGTA,” for “0.1 mmol/L EGTA,”, “glucocorticoid” for “glucocorticod”, “(Pierce).” for “(Pierce). The immunoblot analysis was performed to measure the level of total GRs by Quantity One software from Bio-Rad.”
# glucocorticoid receptor [4] = assay: Glucocorticoid receptor levels in PBMCs of rats after four days of intravenous dosing, immunoblot; type: in vivo, Sprague-Dawley (SD) rats; conditions: daily intravenously for four days, 17-DMAG 6 mg/kg, Paclitaxel 5 mg/kg, Compound 264 80 mg/kg, Compound 226 50 mg/kg
# Procedure: The test compounds were administered daily intravenously via tail vein for four days. […] All rats were sacrificed at the study day 5. About 1-2 mL of blood samples were collected per animal. The blood samples were then pulled together as a group for PBMC isolation.
# Hsp90 protein = assay: Malachite Green Assay of ATPase activity of Hsp90 protein; type: biochemical
# Procedure: Hsp90 protein was obtained from Stressgen (Cat #SPP-770). Assay buffer: 100 mM Tris-HCl, Ph 7.4, 20 mM KCl, 6 mM MgCl2. […] Malachite green reagent was added to the reaction. […] The plate was read by an ELISA reader with an absorbance at 620 nm.
# Her2 = assay: Degradation of Her2 in BT-474 cells, immunoblot (Method 1); type: cell-based, Human; conditions: overnight
# Procedure: Human high-Her2 breast carcinoma BT474 (HTB-20), SK-BR-3 (HTB-30) and MCF-7 breast carcinoma (HTB-22) from American Type Culture Collection, VA, USA were grown in Dulbecco's modified Eagle's medium with 4 mM L-glutamine and antibiotics (100 IU/ml penicillin and 100 ug/ml streptomycine; GibcoBRL). To obtain exponential cell growth, cells were trypsinized, counted and seeded at a cell density of 0.5×10^6 cells/ml regularly, every 3 days. All experiments were performed on day 1 after cell passage. • B. Degradation of Her2 in Cells After Treatment with a Compound of the Invention • 1. Method 1
# BT-474 cells were treated with 0.5 μM, 2 μM, or 5 μM of 17AAG (a positive control) or 0.5 μM, 2 μM, or 5 μM of Compound 108 or Compound 49 overnight in DMEM medium. After treatment, each cytoplasmic sample was prepared from 1×10^6 cells by incubation of cell lysis buffer (#9803, cell Signaling Technology) on ice for 10 minutes. The resulting supernatant used as the cytosol fractions were dissolved with sample buffer for SDS-PAGE and run on a SDS-PAGE gel, blotted onto a nitrocellulose membrane by using semi-dry transfer. Non-specific binding to nitrocellulose was blocked with 5% skim milk in TBS with 0.5% Tween at room temperature for 1 hour, then probed with anti-Her2/ErB2 mAb (rabbit IgG, #2242, Cell Signaling) and anti-Tubulin (T9026, Sigma) as housekeeping control protein. HRP-conjugated goat anti-rabbit IgG (H+L) and HRP-conjugated horse anti-mouse IgG (H+L) were used as secondary Ab (#7074, #7076, Cell Signaling) and LumiGLO reagent, 20× Peroxide (#7003, Cell Signaling) was used for visualization.
# GR (human recombinant) = molecular target: T2, GR (human recombinant) (Homo sapiens, UniProt P04150); assay: GR competitive assay, fluorescence polarization with Fluormone GS1; type: binding; conditions: tested up to 10 uM
# T2 construct: purchased Invitrogen P2816
# T2 sequence (P04150 1-777): T1 sequence (P04150 1-777)
# Procedure: To determine whether the compounds of the invention bind directly to the glucocorticoid receptor, GR competitive assay was performed using a kit from Invitrogen (Cat #P2816). GR (human recombinant) was added to a fluorescent glucocorticoid (Fluormone™ GS1) ligand with a test compound at various concentrations (a serial dilution of the test compound was done on a 96-well plate) and incubated for 2-4 hours in the dark. […] The shift in polarization value in the presence of a test compound was used to determine relative affinity of test compounds for glucocorticoid receptors. The buffer plus Fluormone™ GS1 and glucocorticoid receptor in the absent of s test compound was used as negative control presenting 0% competition. […] The IC50 was calculated based on the inhibition rate of binding activity of the testing compound.
# [5] = Kasumi-1 AML cancer cells, 0, 5, 25, or 100 nM, 16 hrs
# [6] = MV-4-11 AML cancer cells, 0, 5, 25, or 100 nM, 16 hrs
# [7] = cancer cells as well as normal PBMCs and renal cells
# [8] = human PBMCs, 0, 5, 25, or 100 nM, 16 hrs
# [9] = human renal cells, 0, 5, 25, or 100 nM, 16 hrs
smiles,measurement,setting,value
C[C@@H]1C[C@H]2O[C@@H]2/C=C\C=C\C(=O)Cc2c(Cl)c(O)cc(O)c2C(=O)O1 [radicicol],displacement of tritium labeled dexamethason,glucocorticoid receptors,did not displace the tritium labeled dexamethason
"CO[C@H]1/C=C\C=C(/C)C(=O)NC2=CC(=O)C(NCCN(C)C)=C(C[C@@H](C)C[C@H](OC)[C@H](O)[C@@H](C)/C=C(\C)[C@@H]1OC(N)=O)C2=O [Compound 17-DMAG, 17-DMAG, reference compound]",expression of glucocorticoid receptors,glucocorticoid receptor [1],dose dependent decrease; also recorded: decreased the expression of glucocorticoid receptor in a dose dependent manner
same,expression of glucocorticoid receptors,glucocorticoid receptor [2],dose dependent decrease; also recorded: decreased the expression of glucocorticoid receptor in a dose dependent manner
same,"suppression of glucocorticoid receptors, cancer cells compared with normal cells",glucocorticoid receptor [3],more pronounced in cancer cell than in normal cells
same,expression of glucocorticoid receptors,"glucocorticoid receptor [3]; HeLa cells, 0, 5, 25, or 100 nM, 16 hrs",dose dependent decrease
same,expression of glucocorticoid receptors,glucocorticoid receptor [3]; [5],dose dependent decrease
same,expression of glucocorticoid receptors,glucocorticoid receptor [3]; [6],dose dependent decrease
same,expression of glucocorticoid receptors,glucocorticoid receptor [3]; [7],suppress the expression of glucocorticoid receptors
same,expression of glucocorticoid receptors,glucocorticoid receptor [3]; [8],dose dependent decrease
same,expression of glucocorticoid receptors,glucocorticoid receptor [3]; [9],dose dependent decrease
same,expression of glucocorticoid receptor (GR) in isolated PBMC compared with vehicle,glucocorticoid receptor [4],decreased
CC(C)c1cc(-c2nnc(O)n2-c2ccc(N(C)CCN(C)C)cc2)c(O)cc1O [Compound 287],expression of glucocorticoid receptors,glucocorticoid receptor [1],dose dependent decrease; also recorded: decreased the expression of glucocorticoid receptor in a dose dependent manner
same,expression of glucocorticoid receptors,glucocorticoid receptor [2],dose dependent decrease; also recorded: decreased the expression of glucocorticoid receptor in a dose dependent manner
same,"suppression of glucocorticoid receptors, cancer cells compared with normal cells",glucocorticoid receptor [3],more pronounced in cancer cell than in normal cells
same,expression of glucocorticoid receptors,glucocorticoid receptor [3]; [5],dose dependent decrease
same,expression of glucocorticoid receptors,glucocorticoid receptor [3]; [6],dose dependent decrease
same,expression of glucocorticoid receptors,glucocorticoid receptor [3]; [7],suppress the expression of glucocorticoid receptors
same,expression of glucocorticoid receptors,glucocorticoid receptor [3]; [8],dose dependent decrease
same,expression of glucocorticoid receptors,glucocorticoid receptor [3]; [9],dose dependent decrease
"Oc1ccc(-c2nnc(S)n2-c2cccc3ccccc23)c(O)c1 [Compound 108, 3-(2,4-Dihydroxy-phenyl)-4-(naphthalen-1-yl)-5-mercapto-triazole]",ATPase activity of Hsp90,Hsp90 protein; 4 μM,significant inhibition
same,ATPase activity of Hsp90,Hsp90 protein; 40 μM,even greater inhibition of ATPase activity of Hsp90 than geldanamycin
same,degradation of Her2,Her2; 0.5 μM,partially degradated
same,degradation of Her2,Her2; 2 μM,partially degradated
same,degradation of Her2,Her2; 5 μM,almost completely degraded
"CC(=O)O[C@H]1C(=O)[C@@]2(C)[C@H]([C@H](OC(=O)c3ccccc3)[C@]3(O)C[C@H](OC(=O)[C@H](O)[C@@H](NC(=O)c4ccccc4)c4ccccc4)C(C)=C1C3(C)C)[C@]1(OC(C)=O)CO[C@@H]1C[C@@H]2O [Paclitaxel, reference compound]",displacement of tritium labeled dexamethason,glucocorticoid receptors,did not displace the tritium labeled dexamethason
same,expression of glucocorticoid receptor (GR) in isolated PBMC compared with vehicle,glucocorticoid receptor [4],decreased
CCCN(C)c1cc(-n2c(S)nnc2-c2cc(C(C)C)c(O)cc2O)ccc1OC [Compound 264],IC50,GR (human recombinant),> 10 µM
same,expression of glucocorticoid receptor (GR) in isolated PBMC compared with vehicle,glucocorticoid receptor [4],decreased
"CCc1cc(-c2nnc(S)n2-c2cccc3ccccc23)c(O)cc1O [Compound 49, 3-(2,4-Dihydroxy-5-ethyl-phenyl)-4-(naphthalen-1-yl)-5-mercapto-triazole]",degradation of Her2,Her2; 0.5 μM,partial degradated
same,degradation of Her2,Her2; 2 μM,complete degradation
same,degradation of Her2,Her2; 5 μM,complete degradation
